According to patent publication US10899756B2, “Phosphodiesterase inhibitors and uses thereof” (The Trustees of Columbia University in the City of New York, priority 2013, dated 2021):

biological target: PDE5 (Homo sapiens (Human), UniProt O76074); assay: PDE5 Inhibition Assay (BPS PDE assay kit, fluorescence polarization); format: biochemical
Description: Materials and Methods: PDE5 inhibition was assayed at BPS Bioscience (San Diego, Calif.) using BPS PDE assay kits (BPS Catalog number 60300, enzyme lot 090810). Test compounds were supplied as liquid solutions of 10 mM concentration in DMSO. Sildenafil, used as a standard was dissolved in DMSO. Intermediate dilutions were 10% DMSO in PDE assay buffer and tests at ranges from 0.1 to 100 nM. 0.1 ng of enzyme was used per reaction, and the substrate was 100 nM FAM-cGMP.
Assay conditions: A series of dilutions of the test compounds were prepared with 10% DMSO in assay buffer and 5 μl of the dilution was added to a 50 μl reaction so that the final concentration of DMSO is 1% in all of reactions. The enzymatic reactions were conducted at room temperature for 60 minutes in a 50 μl mixture containing PDE assay buffer, 100 nM FAM-cAMP or 100 nM FAM-cGMP, a PDE enzyme, and the test compound. After the enzymatic reaction, 100 μl of a binding solution (1:100 dilution of the binding agent with the binding agent diluent) was added to each reaction and the reaction was performed at room temperature for 60 minutes. Fluorescence intensity was measured at an excitation of 485 nm and an emission of 528 nm using a Tecan Infinite M1000 microplate reader.
Data analysis: PDE activity assays were performed in duplicate at each concentration.
Fluorescence intensity is converted to fluorescence polarization using the Tecan Magellan6 software. The fluorescence polarization data were analyzed using the computer software, Graphpad Prism. The fluorescence polarization (FPt) in absence of the compound in each data set was defined as 100% activity. In the absence of PDE and the compound, the value of fluorescent polarization (FPb) in each data set was defined as 0% activity. The percent activity in the presence of the compound was calculated according to the following equation: % activity=(FP−FPb)/(FPt−FPb)×100%, where FP=the fluorescence polarization in the presence of the compound.
The values of % activity versus a series of compound concentrations were then plotted using non-linear regression analysis of Sigmoidal dose-response curve generated with the equation Y=B+(T−B)/1+10^((LogEC50−X)×Hill Slope), where Y=percent activity, B=minimum percent activity, T=maximum percent activity, X=logarithm of compound and Hill Slope=slope factor or Hill coefficient. The IC50 value was determined by the concentration causing a half-maximal percent activity.

Row | IC50 [nM] | Compound
1 | 0.059 | CCN1Cc2nc3ccc(C#N)cc3c(NCc3ccc(OC)c(Cl)c3)c2C1=O [K, 9-[(3-chloro-4-methoxybenzyl)amino]-2-ethyl-1-oxo-2,3-dihydro-1H-pyrrolo[3,4-b]quinoline-7-carbonitrile]
2 | 0.2 | CCN1CCc2nc3ccc(C#N)cc3c(NCc3ccc(OC)c(Cl)c3)c2C1 [C, 10-[(3-chloro-4-methoxybenzyl)amino]-2-ethyl-1,2,3,4-tetrahydrobenzo[b][1,6]naphthyridine-8-carbonitrile]
3 | 1 | COc1ccc(CNc2c3c(nc4ccc(C#N)cc24)CCN(C)C3)cc1Cl [B, 10-[(3-chloro-4-methoxybenzyl)amino]-2-methyl-1,2,3,4-tetrahydrobenzo[b][1,6]naphthyridine-8-carbonitrile]

Second part, the compound before the results:

Row | Compound | IC50 [nM]
4 | CCN1Cc2nc3ccc(OC)cc3c(NCc3ccc(OC)c(Cl)c3)c2C1=O [L, 9-((3-chloro-4-methoxybenzyl)amino)-2-ethyl-7-methoxy-2,3-dihydro-1H-pyrrolo[3,4-b]quinolin-1-one] | 3.8
5 | CCN1Cc2nc3ccc(C(F)(F)F)cc3c(NCc3ccc(OC)c(Cl)c3)c2C1=O [M, 9-[(3-chloro-4-methoxybenzyl)amino]-2-ethyl-7-(trifluoromethyl)-2,3-dihydro-1H-pyrrolo[3,4-b]quinolin-1-one] | 0.29
6 | COc1ccc(CNc2c3c(nc4ccccc24)CN(C(C)(C)C)C3=O)cc1Cl [Compound P, 2-(tert-butyl)-9-[(3-chloro-4-methoxybenzyl)amino]-2,3-dihydro-1H-pyrrolo[3,4-b]quinolin-1-one] | 333
7 | CCN1Cc2nc3ccc(Cl)cc3c(NCc3ccc(OC)c(Cl)c3)c2C1=O [N, 7-chloro-9-[(3-chloro-4-methoxybenzyl)amino]-2-ethyl-2,3-dihydro-1H-pyrrolo[3,4-b]quinolin-1-one] | 1.7
8 | CCN1Cc2nc3ccccc3c(NCc3ccc(OC)c(Cl)c3)c2C1=O [O, 9-[(3-chloro-4-methoxybenzyl)amino]-2-ethyl-2,3-dihydro-1H-pyrrolo[3,4-b]quinolin-1-one] | 64
